According to article PMC3460366, “Synthesis and Antibacterial Evaluation of a New Series of N-Alkyl-2-alkynyl/(E)-alkenyl-4-(1H)-quinolones” (Molecules, 2012):
Values joined by “and” are separate entries in the source; they are usually repeats but may differ in a detail not shown here. Equal values may be shown once.

Legend:
[1] = system: M. smegmatis (ATCC 14468); experiment: Microtiter broth dilution MIC against M. smegmatis (ATCC 14468); format: cell-based; conditions: Mycolicibacterium smegmatis, ATCC14468, 72 h, 37 °C, MTT
[2] = system: human diploid embryonic lung cell line MRC-5; experiment: XTT cytotoxicity assay on MRC-5 cells; format: cell-based; conditions: XTT
Method: In order to assess the cytotoxicity of these novel quinolone derivatives, the effect on the viability of a human lung fibroblast cell line MRC-5, was measured using XTT proliferation assay. […] In addition, the position of the triple bond in the side chain seems to have a significant influence on cytotoxcity which is increased in compounds with a triple bond more distant to the quinolone nucleus. This can be concluded by comparing results of 8l, 8n, 8p, and 8r having similar antimycobacterial activity on M. smegmatis but different cytotoxcity depending on triple bond position.
The cytotoxic activity of the synthetic compounds was determined by means of an XTT Cell Proliferation Kit II (Roche Diagnostics, Mannheim, Germany) using the human diploid embryonic lung cell line MRC-5 [11]. The quinolone derivatives were tested at concentrations of 100, 60, 30 and 10 µM in triplicate and the percentage of viable cells at each concentration was determined by comparing with the control.

SMILES	MIC [1]	Metabolic active MRC-5 cells (%) ([2]; 10 µM)	Metabolic active MRC-5 cells (%) ([2]; 30 µM)	Metabolic active MRC-5 cells (%) ([2]; 60 µM)	Metabolic active MRC-5 cells (%) ([2]; 100 µM)	Metabolic active MRC-5 cells (%) ([2]; 0.12 µM (positive control))
CCCCCCC#CCCc1cc(=O)c2ccccc2n1C [Compound 8a, 1-Methyl-2-(3′-decynyl)-4(1H)-quinolone]	32 µg/mL and 108 µM	100 ± 1.05%	98.4 ± 1.07%	97.5 ± 0.74%	89.3 ± 2.94%	–
CCCCCCC#CCCc1cc(=O)c2ccccc2n1CC [Compound 8b, 1-Ethyl-2-(3'-decynyl)-4(1H)-quinolone]	16 µg/mL and 51.8 µM	102 ± 0.85%	100 ± 0.73%	98.4 ± 0.77%	85.7 ± 1.96%	–
CCCCCCC#CCCc1cc(=O)c2ccccc2n1CCC [Compound 8c, 1-(n-Propyl)-2-(3′-decynyl)-4(1H)-quinolone]	8 µg/mL and 24.8 µM	103 ± 1.22%	102 ± 0.42%	100 ± 0.55%	100 ± 1.45%	–
CCCCCCCC#CCCc1cc(=O)c2ccccc2n1C [Compound 8d, 1-Methyl-2-(3'-undecynyl)-4(1H)-quinolone]	8 µg/mL and 25.9 µM	101 ± 1.08%	99.8 ± 0.52%	98.7 ± 0.8%	97.3 ± 0.66%	–
CCCCCCCC#CCCc1cc(=O)c2ccccc2n1CC [Compound 8e, 1-Ethyl-2-(3'-undecynyl)-4(1H)-quinolone]	8 µg/mL and 24.8 µM	102 ± 1.05%	101 ± 1.42%	100 ± 0.56%	100 ± 1.05%	–
CCCCCCCC#CCCc1cc(=O)c2ccccc2n1CCC [Compound 8f, 1-(n-Propyl)-2-(3'-undecynyl)-4(1H)-quinolone]	4 µg/mL and 11.9 µM	100 ± 1.05%	101 ± 1.28%	91.7 ± 2.77%	70.9 ± 8.50%	–
CCCCCCCCC#Cc1cc(=O)c2ccccc2n1CCC [Compound 8h, 1-(n-Propyl)-2-(1'-decynyl)-4(1H)-quinolone]	4 µg/mL and 12.4 µM	103 ± 1.38%	101 ± 2.47%	39.5 ± 3.59%	14.1 ± 7.83%	–
CCCCCCCCC#Cc1cc(=O)c2ccccc2n1CCCC [Compound 8i, 1-(n-Butyl)-2-(1'-decynyl)-4(1H)-quinolone]	4 µg/mL and 11.9 µM	103 ± 3.13%	101 ± 0.81%	67.2 ± 9.90%	28.7 ± 8.95%	–
CCCCCCCCC#CCCc1cc(=O)c2ccccc2n1C [Compound 8j, 1-Methyl-2-(3'-dodecynyl)-4(1H)-quinolone]	4 µg/mL and 12.4 µM	97.6 ± 1.03%	96.7 ± 1.49%	95.1 ± 0.81%	95.84 ± 0.96%	–
CCCCCCCCCCCCCC#Cc1cc(=O)c2ccccc2n1C [Compound 8t, 1-Methyl-2-(1'-pentadecynyl)-4(1H)-quinolone]	128 µg/mL and 351 µM	100 ± 1.01%	100 ± 1.38%	98.8 ± 1.28%	93.8 ± 0.96%	–
CC[C@]1(O)C[C@@H]2CN(CCc3c([nH]c4ccccc34)[C@@](C(=O)OC)(c3cc4c(cc3OC)N(C)[C@H]3[C@@](O)(C(=O)OC)[C@H](OC(C)=O)[C@]5(CC)C=CCN6CC[C@]43[C@@H]65)C2)C1 [Vinblastin, reference compound]	–	–	–	–	–	51.5 ± 2.36%
